Data published in US20050159359A1, “Methods and compositions for derepression of IAP-inhibited caspase” (The Burnham Institute, priority 2001, published 2005).
Where no end group is shown, it is not given here. [ ]: non-standard residue; d: D form. The star is where a group is joined. Phe(4-Cl) = N[C@@H](Cc1ccc(Cl)cc1)C(=O)O; dPhe(4-Cl) = N[C@H](Cc1ccc(Cl)cc1)C(=O)O; dPhe(4-F) = N[C@H](Cc1ccc(F)cc1)C(=O)O; 2Nal = N[C@@H](Cc1ccc2ccccc2c1)C(=O)O; d2Nal = N[C@H](Cc1ccc2ccccc2c1)C(=O)O; Fmoc = O=C(OCC1c2ccccc2-c2ccccc21)*; 2Thi = N[C@@H](Cc1cccs1)C(=O)O

Legend:
[1] = target: XIAP-inhibited caspase-3 (Homo sapiens, UniProt P98170); experiment: IAP derepression assay: Ac-DEVD-AFC hydrolysis by caspase-3 in presence of GST-XIAP; assay type: biochemical; settings: tested at 0.4, 2, 10 and 50 micrograms per milliliter
Experimental: Caspase activity was assayed by release of −7-amino-4-trifluoromethyl-coumarin (AFC) from Ac-DEVD-AFC synthetic peptides using a Molecular Devices Spectromax 340 (see Zhou et al., J. Biol. Chem. 272: 7797-7800 (1997)). […] The ratio of Vmax for hydrolysis of Ac-DEVD-AFC in the presence and absence of the candidate mixture was calculated and used to identify those that contain an agent that derepresses an IAP-inhibited caspase.
Screening of each mixture from the DCR390, TPI1239 or TPI1328 library, respectively, using the above described assay was carried out as follows. Each mixture was aliquoted in a 25 microliter volume and in duplicate to a well of a 96 well microtiter plate. […] Fluorescence of liberated AFC was immediately detected from each well for 30 minutes at 30 second intervals. The Vmax for hydrolysis of AC-DEVD-AFC from each well was measured using the softmax software package.

[2] = tested on: ALVA31 prostate cancer cells; experiment: ALVA31 cell viability (XTT dye-reduction and trypan blue dye exclusion); assay type: cell-based; settings: IAP antagonist 40 μM or VP-16 100 μM, 24 hrs
Experimental: The in vivo effects of TPI792-33 or TPI792-35, either individually or in combination with the cytotoxic anticancer drug VP-16 (etoposide), on derepression of XIAP-inhibited caspase and viability of ALVA31 cells was determined as follows. ALVA31 prostate cancer cells were seeded onto 96 well plates (10^4 cells/well) in 100 μL RPMI containing 2.5% fetal bovine serum (FBS). […] After another 24 hrs incubation, cell viability was measured by the XTT dye-reduction assay (Roche, Molecular Biochemicals; Indianapolis, Ind.) and trypan blue dye exclusion assay.

[3] = target: full length XIAP (Homo sapiens, UniProt P98170); experiment: SMAC competition assay: rhodamine labeled SMAC tetrapeptide AVPI and full length XIAP; settings: for EC50: amount of compound necessary to restore Caspase-3 activity to 50% of Vmax; for Relative Potency: fold relative to SMAC AVPI tetrapeptide
[4] = tested on: normal bone marrow mononuclear cells; experiment: Toxicity to normal bone marrow mononuclear cells, Annexin V flow cytometry; assay type: cell-based; settings: same culture conditions as Jurkat killing; 5 μM, 20 hours
Experimental: A comparison of the effects of TPI1396-34 on normal bone marrow cells versus Jurkat leukemia cells was performed as follows. TPI1396-34 (5 μM) was incubated with Jurkat cells or normal bone marrow mononuclear cells (6.25×10^5/mL) in RPMI and 2.5% FBS for 20 hours. After incubation, cells were washed, stained with FITC-conjugated Annexin V antibody and propidium iodide, and fluorescence measured by flow cytometry as described above.

[5] = Jurkat cell killing, Annexin V / propidium iodide flow cytometry; assay type: cell-based; settings: human
Experimental: The following assay was used to test the ability of individual compounds from the TPI1396 and TPI1391 libraries to induce apoptosis of cultured tumor cell lines. Each of the compounds listed in Table IX was individually added to Jurkat leukemia cells (6.25×10^5 cells/mL) in RPMI containing 2.5% FBS at various concentrations for 20 hours. After incubation, cells were washed and stained with FITC-conjugated Annexin V antibody and propidium iodide (Biovision; Mountain View, Calif.). Cells were incubated for 20 minutes at room temperature in the dark and fluorescence was measured by flow cytometry (FACScan, Immunocytometry system; Becton-Dickinson; San Jose, Calif.). Cells staining positive for Annexin V were deemed non-viable.
The TPI1396-34 and TPI1391-28 compounds were further tested as set forth below.

[6] = tested on: U937 leukemia cells (U937-Neo, U937-XIAP); experiment: Apoptosis in U937 cells transfected with Neo-control or XIAP plasmid; assay type: cell-based; settings: U937-XIAP vs U937-Neo, 5 or 8 μM, 20 hours
Experimental: After incubation, cells were washed, stained with FITC-conjugated Annexin V antibody and propidium iodide, and fluorescence measured by flow cytometry as described in Example X.

[7] = tested on: HeLa cells; experiment: Apoptosis in HeLa cells transfected with XIAP, XIAP mutants or Bcl-XL, Annexin V; assay type: cell-based; settings: 5 μM, 20 hours
Experimental: In addition to transfecting the cells with full-length XIAP, analogous assays were performed with HeLa cells transfected with plasmids over-expressing various XIAP mutants. […] The mutant was produced by site-directed mutagenesis to modify positions 148, 219, 223, 314 and 323 to contain alanine. HeLa cells were also transiently transfected with plasmids encoding Bcl-XL, an anti-apoptotic protein that operates upstream of Caspases to suppress Cytochrome C release from mitochondria. HeLa cells (2.5×10^5) were seeded onto six well plates in 2 mL DMEM H21 with 5% FBS. After 24 hrs, cells were transfected (Gene Porter) with plasmids. At 48 hrs after transfection, cells were treated with 5 μM of TPI1396-34 for 20 hours. Both floating and adherent cells were then recovered from cultures, washed, and apoptosis was determined by Annexin V staining using flow cytometry.

[8] = target: caspase-3 and -7; settings: read-out: Ki for inhibition of caspase-3 and -7; reported; cited from earlier work

XIAP-inhibited caspase-3, sequence (P98170 whole entry): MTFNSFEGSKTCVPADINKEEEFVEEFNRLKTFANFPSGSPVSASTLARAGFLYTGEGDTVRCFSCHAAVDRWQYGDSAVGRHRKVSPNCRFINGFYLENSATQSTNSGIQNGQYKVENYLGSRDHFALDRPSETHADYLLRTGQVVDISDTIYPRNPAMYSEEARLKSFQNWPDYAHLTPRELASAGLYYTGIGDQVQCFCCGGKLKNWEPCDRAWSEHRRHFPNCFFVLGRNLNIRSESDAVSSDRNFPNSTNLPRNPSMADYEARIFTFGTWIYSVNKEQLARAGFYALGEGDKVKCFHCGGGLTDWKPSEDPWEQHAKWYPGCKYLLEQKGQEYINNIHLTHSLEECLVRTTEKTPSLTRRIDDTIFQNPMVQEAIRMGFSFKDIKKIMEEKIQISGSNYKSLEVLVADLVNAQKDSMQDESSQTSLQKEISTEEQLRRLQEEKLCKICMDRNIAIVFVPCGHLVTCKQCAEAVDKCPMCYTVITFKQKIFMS
full length XIAP, sequence (P98170 whole entry): as above

(L-ThiAla)-(Lys-εFmoc)-(L-pClPhe)-(pF-D-F) ([2Thi]K(Fmoc)[Phe(4-Cl)][dPhe(4-F)]) [TPI792-22]
LC (lowest concentration with a ratio of 2 or higher in the derepression assay) [1]: 2 µg/mL

COc1cc([C@@H]2c3cc4c(cc3[C@@H](O[C@@H]3O[C@@H]5CO[C@@H](C)O[C@H]5[C@H](O)[C@H]3O)[C@H]3COC(=O)[C@H]23)OCO4)cc(OC)c1O [VP-16, etoposide]
effect on viability of ALVA31 cells, agent alone [2]: essentially no effect

(L-ThiAla)-(Lys-εFmoc)-(D-Nal)-(Lys-εFmoc) ([2Thi]K(Fmoc)[d2Nal]K(Fmoc)) [TPI792-19]
LC (lowest concentration with a ratio of 2 or higher in the derepression assay) [1]: 2 µg/mL

CCCCCCCN1C(=O)C(=O)N([C@H](CCCC)CNCc2ccccc2)C[C@@H]1Cc1ccc2ccccc2c1 [TPI1391-21]
EC50 [3]: 37 µM | Relative Potency [3]: 3.4

(D-Nal)-(L-Nal)-(L-pClPhe)-(Lys-εFmoc) ([d2Nal][2Nal][Phe(4-Cl)]K(Fmoc); also: 4: D-Lys-εFmoc in Table V) [TPI792-15]
LC (lowest concentration with a ratio of 2 or higher in the derepression assay) [1]: 2 µg/mL

(D-Nal)-(D-pClPhe)-(L-pClPhe)-(Lys-εFmoc) ([d2Nal][dPhe(4-Cl)][Phe(4-Cl)]K(Fmoc)) [TPI792-9]
LC (lowest concentration with a ratio of 2 or higher in the derepression assay) [1]: 10 µg/mL

(D-Nal)-(Lys-εFmoc)-(L-pClPhe)-(Lys-εFmoc) ([d2Nal]K(Fmoc)[Phe(4-Cl)]K(Fmoc); not fully specified; printed as (D-Nal)-(Lys-εFmoc)-(L-pClPhe)-(Lys-εFmoc)) [TPI792-3]
LC (lowest concentration with a ratio of 2 or higher in the derepression assay) [1]: 2 µg/mL

CC(C)C[C@@H]1CN([C@H](CNCc2ccccc2)Cc2ccc3ccccc3c2)C(=O)C(=O)N1CCc1cccc(C(F)(F)F)c1 [TPI1391-28]
toxicity to normal bone marrow cells [4]: little toxicity | Relative Potency [3]: 4.8

H-AVPIAQK-NH2 [SMAC, H-Ala-Val-Pro-Ile-Ala-Gln-Lys-NH2]
percent nonviable cells at 20 hours, 50 µM ([5]; 50 μM): ~16% | percent nonviable cells at 20 hours, 100 µM ([5]; 100 μM): 15%

(L-ThiAla)-(D-pClPhe)-(L-pClPhe)-(Lys-εFmoc) ([2Thi][dPhe(4-Cl)][Phe(4-Cl)]K(Fmoc)) [TPI792-27]
LC (lowest concentration with a ratio of 2 or higher in the derepression assay) [1]: 2 µg/mL

(D-Nal)-(L-Nal)-(D-Lys-εFmoc)-(Lys-εFmoc) ([d2Nal][2Nal][dK](Fmoc)K(Fmoc)) [TPI792-17]
LC (lowest concentration with a ratio of 2 or higher in the derepression assay) [1]: 2 µg/mL

COc1ccc(CCN2CCC[C@@H]2CN(C(=O)Nc2ccccc2)[C@@H](CNC(=O)Nc2ccccc2)CC2CCCCC2)cc1 [TPI1396-34]
toxicity to normal bone marrow cells [4]: little toxicity | effect of XIAP over-expression on apoptosis induction [6]: resistant | apoptosis ([7]; HeLa expressing XIAP mutant with mutated SMAC-binding pocket): not protected | apoptosis ([7]; HeLa expressing mutant of only the BIR2 domain): not protected | apoptosis ([7]; HeLa expressing the BIR3 domain): protected | apoptosis ([7]; HeLa over-expressing Bcl-XL): not blocked | apoptosis ([7]; HeLa over-expressing full-length XIAP): protected | apoptosis ([7]; HeLa transfected with control vector): induced apoptosis | EC50 [3]: 33 µM

cIAP2: cellular IAP protein, human inhibitor of apoptosis protein
Ki [8]: 0.0002 to 0.01 µM
